# In patent US20230129866A1 (PureTech LYT 100, Inc., priority 2020, published 2023):
# Legend:
# [1] = tested on: L929 cells; assay: TGF-induced collagen synthesis in L929 cells, 6-wells (SIRCOL); format: cell-based; settings: 72 hrs, FIG. 4B
# Protocol: 100,000 L929 cells were plated in complete DMEN and incubated until confluency for 3 days. Medium was removed and complete DMEM containg Prolin ([…]) and ascorbic acid (10 μM) was added. […] Cells were further incubated for 72 hrs. Supernatant was removed, cells were washed with cold PBS, 1 ml SIRCOL reagent was added onto the cells and cells were scraped off, samples were shaken for 5 h.at RT, centrifuged at 10.000 rpm for 5 min, supernatant was removed, pellet was dissolved in 0.5 M acetic acid to remove unbound dye, and re-centrifuged at 10.000 rpm for 5 min, supernatant was removed and final pelet was dissolved in 1 ml 0.5M NaOH, shaken at RT for 5 h, 100 μl of resulted solution was placed in 96-well and O.D was determined at 600.
# [2] = tested on: NASH mice; assay: Streptozotocin/high fat diet NASH mouse model: Sirius-red fibrosis area and NAFLD Activity Score; format: in vivo; settings: n = 8
# From the text: Non-alcoholic steatohepatitis (NASH) is characterized by lobular inflammation, hepatocyte ballooning and degeneration progressing to liver fibrosis. […] In addition, nine non-NASH mice were fed with a normal diet and monitored.
# While LYT-100 hepatocyte ballooning was similar to Vehicle, scores were lower for lobular inflammation and steatosis. (Table 6 and 7).
# [3] = In vitro comparative mass balance and metabolite studies in liver microsomes; format: in vitro ADME, human, rat, dog, mouse, monkey
# From the text: Both LYT-100 and pirfenidone share a common major metabolite.
# [4] = human, in vivo, po
# From the text: Following screening, eligible healthy volunteer subjects were admitted to a single clinical study site and were randomized to 1 of 2 treatment sequences. […] In each period, a standardized breakfast was provided to subjects prior to administration of study drug (to compare the PK profiles in the clinically relevant fed state) and plasma samples were collected over a 48-hour period after dosing for evaluation of PK. Dosing between the 2 periods was separated by a minimum of 7 days. Subjects completed the study upon completion of the 48-hour post-dose assessments following dosing period 2.
# All capsules were identical in size, shape, and external color.
smiles,measurement,setting,value
"[2H]C([2H])([2H])c1ccc(=O)n(-c2ccccc2)c1 [LYT-100, 5-(methyl-d3)-1-phenylpyridin-2-(1H)-one]",Effect on TGF-induced collagen synthesis,[1]; 500 μM 1 hour prior to TGF-β 5 ng/ml,inhibits
same,Effect on collagen synthesis in the absence of added TGF-β,[1]; 500 μM,significantly inhibits
same,Steatosis score 0: number of animals,"[2]; NAS component, score 0 = <5%, LYT-100 30 mg/kg twice daily",4
same,Steatosis score 1: number of animals,"[2]; NAS component, score 1 = 5-33%, LYT-100 30 mg/kg twice daily",3
same,Lobular Inflammation score 1: number of animals,"[2]; NAS component, score 1 = <2 foci/200x, LYT-100 30 mg/kg twice daily",5
same,Lobular Inflammation score 2: number of animals,"[2]; NAS component, score 2 = 2-4 foci/200x, LYT-100 30 mg/kg twice daily",3
same,Steatosis score 2: number of animals,"[2]; NAS component, score 2 = >33%-66%, LYT-100 30 mg/kg twice daily",1
same,Hepatocyte ballooning score 2: number of animals,"[2]; NAS component, score 2 = Many cells/prominent ballooning, LYT-100 30 mg/kg twice daily",8
same,Fibrosis Area (%) (mean ± SD),"[2]; Sirius-red stained liver sections, LYT-100 30 mg/kg orally twice daily from 6-9 weeks of age, p < 0.01 vs Vehicle (1.02 ± 0.20)",0.64 ± 0.31 %
same,Novel metabolites through deuteration,"[3]; human, rat, dog, mouse, and monkey liver microsomes",did not introduce novel
same,Rate of metabolism compared with pirfenidone,[3]; liver microsomes,occurred more slowly
same,Tolerability of single doses,[4],well tolerated
